For assay [1], the target named is T1, Dopamine, D4 (Homo sapiens, UniProt P21917).
T1 sequence (P21917 1-419): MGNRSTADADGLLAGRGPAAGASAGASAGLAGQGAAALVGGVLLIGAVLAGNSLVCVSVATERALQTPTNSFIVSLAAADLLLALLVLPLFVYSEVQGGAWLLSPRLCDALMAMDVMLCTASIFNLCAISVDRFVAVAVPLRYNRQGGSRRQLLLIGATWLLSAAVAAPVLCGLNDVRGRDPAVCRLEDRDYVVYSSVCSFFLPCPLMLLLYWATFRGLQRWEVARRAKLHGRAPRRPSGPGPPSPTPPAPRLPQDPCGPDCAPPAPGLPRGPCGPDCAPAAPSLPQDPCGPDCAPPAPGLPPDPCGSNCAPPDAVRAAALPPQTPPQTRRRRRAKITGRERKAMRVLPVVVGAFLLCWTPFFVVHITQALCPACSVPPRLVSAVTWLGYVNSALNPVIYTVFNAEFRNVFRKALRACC
Briefly: NovaScreen broad selectivity panel at 100 nM, Dopamine D4. The conditions noted are these: average of replicate tubes, read-out: % Inhibition of binding at 100 nM concentration, Dopamine D4. On the procedure: (§1) Binding activity at a variety of receptor targets, including recombinant human serotonin receptors and rat dopamine D2 and human recombinant dopamine D4 receptors, was measured in vitro using standard radioligand displacement methods (NovaScreen/Caliper/Perkin-Elmer, Hanover, MD), to determine affinity. […] D2 receptor binding was measured at rat recombinant receptors expressed in Chinese hamster ovary (CHO) cells and using ^3H-methylspiperone as a radioligand and in rat striatum using ^3H-sulpiride as a radioligand. […] D4 receptor binding was measured at human recombinant receptor s expressed in CHO cells and using ^3 H-methylspiperone as a radioligand. D1 receptor binding at human recombinant receptor was measured in CHO cells using ^3H-SCH23390 as a radioligand. 5-HT2C receptor binding was measured in pig choroid plexus using ^3 H-methylsergide as a radioligand. Binding to alpha adrenergic receptors in the rat frontal cortex (alpha1A) or rat liver (alpha1B) was measured using ^3H-prazosin as a radioligand. Histamine H1 receptor binding was measured in bovine cere- bellum using ^3H-pyrilamine as a radioligand. […] The affinity constant (Ki) for each receptor subtype or inhibitory concentration 50 (IC50) for inhibition in functional assays was calculated.

The target of assay [2] is T2, 5-HT2C receptor (Sus scrofa, UniProt K7GSR7).
T2 construct: tissue NovaScreen/Caliper/Perkin-Elmer; host or cells: pig choroid plexus
T2 sequence (K7GSR7 1-457): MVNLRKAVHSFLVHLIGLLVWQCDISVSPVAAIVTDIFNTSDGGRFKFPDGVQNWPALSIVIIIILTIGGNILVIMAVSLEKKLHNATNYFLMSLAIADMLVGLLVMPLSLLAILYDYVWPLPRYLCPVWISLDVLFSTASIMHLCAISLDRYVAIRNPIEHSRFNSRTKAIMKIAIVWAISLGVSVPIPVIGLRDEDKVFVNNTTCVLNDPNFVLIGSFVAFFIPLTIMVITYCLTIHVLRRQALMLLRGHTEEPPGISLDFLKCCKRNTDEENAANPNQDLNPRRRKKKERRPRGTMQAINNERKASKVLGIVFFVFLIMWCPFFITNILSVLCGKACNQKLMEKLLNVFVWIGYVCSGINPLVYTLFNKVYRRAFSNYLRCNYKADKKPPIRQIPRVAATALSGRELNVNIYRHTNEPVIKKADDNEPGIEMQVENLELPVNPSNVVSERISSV
The assay is described as follows: 5-HT2C receptor binding in pig choroid plexus (3H-methylsergide). On the procedure: as §1

Assay [3] concerns the target T3, 5-HT2A receptor (Homo sapiens, UniProt P28223). Briefly: Serotonin-mediated phosphatidylinositol (PI) turnover in HEK293 cells. In kind it is cell-based. To be noted: right-shifting the serotonin dose–response curve.
Assay [4] relates to GluN2B phosphorylated at tyrosine (Y) 1472. The assay is described as follows: GluN2B Y1472 phosphorylation state in nucleus accumbens. In kind it is in vivo. The conditions noted are these: mice, 3 mg/kg p.o., 120 min after dosing. The protocol: Brains were rapidly removed from the skull. […] Brain tissue was prepared for SDS-PAGE as described above, and protein homogenates (15 μg) were separated on 3-7 % gradient gels, and proteins transferred to nitrocellulose membranes. Portions of each membrane were immunoblotted for GluN2B phosphorylated at […] (rabbit polyclonal) and total GluN2B (mouse monoclonal) (Thermo Fisher Scientific, Rockford, IL).

Assay [5] has as its system panel of 66 receptors, ion channels, and enzymes. The assay is described as follows: NovaScreen broad selectivity panel at 100 nM, whole panel. In kind it is binding.
Assay [6] has as its system serine 40 (S40)-phosphorylated tyrosine hydroxylase. Briefly: Striatal tyrosine hydroxylase S40 phosphorylation state (CNSProfile immunoblotting). In kind it is in vivo. The conditions noted are these: mice, acute; ITI-007 3 mg/kg p.o., clozapine 5 i.p., aripiprazole 10 p.o., olanzapine 1 i.p., risperidone 3 p.o., haloperidol 1 i.p.; over 60 min; vs vehicle. The protocol:
The effect of the selected compounds on the phosphorylation state of tyrosine hydroxylase (TH) was measured and quantitated as an indicator of the potential of each compound to perturb presynaptic dopamine synthesis in striatum. […] This technique preserves in vivo levels of brain protein phosphorylation ([Zhu et al. 2010]). […] Small aliquots of the homogenate were retained for protein determination by the bicinchoninic acid (BCA) protein assay method (Pierce Chemical Co., Rockford, IL). […] Immunoblotting was carried out using a phos-phorylation state-specific polyclonal antibody raised against […] (S40)-phosphorylated tyrosine hydroxylase (Chemicon, Temecula, CA) and a pan-TH monoclonal antibody for measuring the total protein levels (BD Biosciences, San Jose, CA). […] Antibody binding was detected and quantitated using a LiCor Odyssey infrared fluorescent detection system. Phosphorylation at each site detected by phospho-specific antibodies was quantified, normalized to total levels of the protein (non-phosphorylated), and expressed as percent±SEM of the level of phosphorylation in vehicle-treated control mice (N=6).

Assay [7] relates to D-AMPH-induced hyperactivity. Briefly: Inhibition of D-amphetamine-induced hyperactivity. In kind it is in vivo. The conditions noted are these: rats, p.o.; D-AMPH 1 mg/kg i.p.; distance traveled over 2 h. The protocol: Male Sprague–Dawley rats (200–250 g, N=4/treatment group) were habituated to Lucite locomotor activity chambers comprising an AccuScan activity monitoring system (AccuScan Instruments, Inc., Columbus, OH) were maintained in a quiet observation room kept under low light conditions. […] The rats were briefly removed from the activity chambers 60 min later to receive an injection of D-amphetamine hydrochloride (D-AMPH; 1 mg/kg in 1 ml/kg, i.p.). The animals were returned to the activity chambers, and locomotor activity was then recorded for 2 h using system software. Activity was quantitated as distance traveled (cm) over 2 h for each group. Inhibitory activity was calculated as the percent of total activity observed at each dose level of each drug versus animals receiving D-AMPH alone. An ID50 for inhibition of D-AMPH-induced hyperactivity was calculated for each compound.

The target of assay [8] is T3, 5-HT2A receptor. The conditions noted are these: read-out: IC50, antagonism of serotonin-induced increase in calcium fluorescence; serotonin 30 nM.

“And” between values parts separate entries of the source, which are not always exact repeats. Equal values may be shown once. A value given as a limit tells only on which side of the number the result lay.

T3 sequence (P28223 whole entry): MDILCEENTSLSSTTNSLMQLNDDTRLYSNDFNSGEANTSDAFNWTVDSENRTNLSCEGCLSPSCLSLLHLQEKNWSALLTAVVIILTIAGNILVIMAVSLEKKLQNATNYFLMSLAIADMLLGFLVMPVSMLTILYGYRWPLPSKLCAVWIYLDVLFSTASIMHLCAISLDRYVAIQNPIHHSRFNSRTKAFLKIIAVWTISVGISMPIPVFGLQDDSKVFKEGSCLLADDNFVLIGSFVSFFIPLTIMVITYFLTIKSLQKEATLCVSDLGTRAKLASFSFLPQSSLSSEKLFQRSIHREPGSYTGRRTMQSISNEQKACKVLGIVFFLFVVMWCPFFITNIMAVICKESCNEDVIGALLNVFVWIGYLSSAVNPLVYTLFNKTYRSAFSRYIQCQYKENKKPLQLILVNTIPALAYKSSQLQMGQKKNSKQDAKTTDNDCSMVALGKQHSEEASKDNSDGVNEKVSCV

Take `CN1CCN2c3c(cccc31)[C@@H]1CN(CCCC(=O)c3ccc(F)cc3)CC[C@@H]12` [ITI-007, 1-(4-fluoro-phenyl)-4-((6bR,10aS)-3-methyl-2,3,6b,9,10,10a-hexahydro-1H,7H-pyrido[3′,4′:4,5]pyrrolo[1,2,3-de]quinoxalin-8-yl)-butan-1-one]: the inhibition at 0.1 µM in assay [1] is 64.3%. Also, the “Binding to 5-HT2C receptors” value in assay [2] is reported as “did not significantly bind”. Besides, the Ki in assay [2] (radioligand displacement, unit inferred) is 173 nM; in assay [5] (read-out: projected Ki values (>50 % binding inhibition), single concentration 100 nM, at the 5-HT2A, D1, D2, D4, alpha1A and alpha1B receptors, and at SERT) it was at most 100 nM. Moreover, the “Effect on serotonin-mediated increases in phosphatidylinositol (PI) turnover” value in assay [3] is recorded as “antagonize”. In assay [4], the “GluN2B phosphorylation at Y1472 in nucleus accumbens” value is 180±20 % of control. In assay [5] (100 nM, custom panel of 66 receptors, ion channels, and enzymes), the “Binding to the other targets of the panel” value is “did not bind significantly”. Further, in assay [6], the “Effect on TH phosphorylation at S40 in striatum” value is reported as “no significant effect”. Besides, in assay [7], the “ID50, inhibition of D-AMPH-induced hyperactivity” value is 0.95 mg/kg and ~ 1.0 mg/kg. The IC50 in assay [8] was determined as 7 nM.
